The text below walks through data of patent US10544143B2, “4-azaindole compounds” (BRISTOL-MYERS SQUIBB COMPANY, priority 2017, dated 2020).

Experiment [1] concerns the target human TLR7 (Homo sapiens (Human), UniProt Q9NYK1). Nature of the experiment: TLR7 inhibition reporter assay (HEK-Blue SEAP). The experiment is classed as cell-based. The note with it: HEK-Blue cells overexpressing human TLR7, gardiquimod 7.5 μM stimulation, SEAP reporter.
Experiment [2] concerns the target human TLR8 (Homo sapiens (Human), UniProt Q9NR97). Nature of the experiment: TLR8 inhibition reporter assay (HEK-Blue SEAP).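 Also: SEAP driven by IFN-β minimal promoter carrying NF-κB and AP-1 sites, compounds dosed 0.05 nM to 50 µM for 22 h, inhibition scaled between agonist-plus-DMSO and reference-inhibitor wells.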 The note with it: read-out: TLR8 IC50; HEK-Blue cells overexpressing human TLR8, R848 15.9 μM stimulation, SEAP reporter.
The target in experiment [3] is human TLR9 (Homo sapiens (Human), UniProt Q9NR96). Nature of the experiment: TLR9 inhibition reporter assay (HEK-Blue SEAP).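 Also: SEAP driven by an IFN-β minimal promoter with NF-κB and AP-1 sites, read after 22 h, compounds dosed 0.05 nM–50 µM, inhibition scaled between agonist plus DMSO and reference-inhibitor wells.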 The note with it: read-out: TLR9 IC50; HEK-Blue cells overexpressing human TLR9, ODN2006 5 nM stimulation, SEAP reporter.
Sequence of human TLR9 (Q9NR96 26-1032): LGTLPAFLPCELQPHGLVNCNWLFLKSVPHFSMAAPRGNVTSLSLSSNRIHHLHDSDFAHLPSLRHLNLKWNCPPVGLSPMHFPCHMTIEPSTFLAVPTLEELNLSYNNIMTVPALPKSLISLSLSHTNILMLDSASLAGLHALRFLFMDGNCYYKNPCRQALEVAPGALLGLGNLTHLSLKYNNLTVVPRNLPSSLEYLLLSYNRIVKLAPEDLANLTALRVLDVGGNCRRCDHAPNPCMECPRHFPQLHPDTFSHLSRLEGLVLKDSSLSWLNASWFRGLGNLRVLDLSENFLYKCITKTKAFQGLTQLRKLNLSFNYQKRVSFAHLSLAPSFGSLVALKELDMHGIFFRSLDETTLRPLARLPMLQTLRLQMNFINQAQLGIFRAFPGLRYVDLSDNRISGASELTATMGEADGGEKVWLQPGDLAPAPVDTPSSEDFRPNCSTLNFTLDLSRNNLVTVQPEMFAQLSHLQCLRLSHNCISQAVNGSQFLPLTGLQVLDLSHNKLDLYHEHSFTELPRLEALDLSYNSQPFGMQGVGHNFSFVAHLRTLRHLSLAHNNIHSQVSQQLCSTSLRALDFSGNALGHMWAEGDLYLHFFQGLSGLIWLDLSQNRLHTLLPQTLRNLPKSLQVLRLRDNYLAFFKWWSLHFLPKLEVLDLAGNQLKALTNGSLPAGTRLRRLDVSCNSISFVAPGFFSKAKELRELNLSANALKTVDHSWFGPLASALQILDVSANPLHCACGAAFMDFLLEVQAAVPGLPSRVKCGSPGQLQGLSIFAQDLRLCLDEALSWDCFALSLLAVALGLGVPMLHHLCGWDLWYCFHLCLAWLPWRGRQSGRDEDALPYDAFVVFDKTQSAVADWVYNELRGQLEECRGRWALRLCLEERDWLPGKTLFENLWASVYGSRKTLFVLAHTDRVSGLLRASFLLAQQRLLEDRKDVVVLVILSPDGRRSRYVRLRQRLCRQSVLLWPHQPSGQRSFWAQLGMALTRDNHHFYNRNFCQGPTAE

Sequence of human TLR8 (Q9NR97 27-1041): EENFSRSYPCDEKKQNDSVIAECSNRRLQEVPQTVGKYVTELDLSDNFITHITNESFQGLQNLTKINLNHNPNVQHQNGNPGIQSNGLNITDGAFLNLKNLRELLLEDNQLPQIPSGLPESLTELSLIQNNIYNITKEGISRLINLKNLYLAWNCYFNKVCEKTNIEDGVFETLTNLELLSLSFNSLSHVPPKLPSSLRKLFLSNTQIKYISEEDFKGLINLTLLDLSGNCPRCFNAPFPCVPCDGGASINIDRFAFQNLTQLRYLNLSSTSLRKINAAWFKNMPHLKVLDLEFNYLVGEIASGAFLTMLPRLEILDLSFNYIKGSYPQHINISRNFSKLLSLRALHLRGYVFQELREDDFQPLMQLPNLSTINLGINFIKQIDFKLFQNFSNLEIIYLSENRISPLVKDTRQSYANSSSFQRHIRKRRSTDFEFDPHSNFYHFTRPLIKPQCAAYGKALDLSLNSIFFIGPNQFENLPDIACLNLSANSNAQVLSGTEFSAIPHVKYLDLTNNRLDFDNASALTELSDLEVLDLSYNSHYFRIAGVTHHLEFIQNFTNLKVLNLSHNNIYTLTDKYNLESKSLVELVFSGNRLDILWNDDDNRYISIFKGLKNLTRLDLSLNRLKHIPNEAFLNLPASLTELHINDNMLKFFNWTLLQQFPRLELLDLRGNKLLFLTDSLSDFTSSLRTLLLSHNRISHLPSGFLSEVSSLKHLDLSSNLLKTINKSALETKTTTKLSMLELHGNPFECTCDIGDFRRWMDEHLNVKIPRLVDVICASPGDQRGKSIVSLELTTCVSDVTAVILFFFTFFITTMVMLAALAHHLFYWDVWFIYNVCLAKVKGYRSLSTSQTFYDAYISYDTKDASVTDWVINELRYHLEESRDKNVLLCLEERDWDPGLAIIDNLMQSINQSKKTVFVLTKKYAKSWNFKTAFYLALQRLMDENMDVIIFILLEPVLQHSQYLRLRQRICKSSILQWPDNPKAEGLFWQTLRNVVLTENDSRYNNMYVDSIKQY
Sequence of human TLR7 (Q9NYK1 27-1049): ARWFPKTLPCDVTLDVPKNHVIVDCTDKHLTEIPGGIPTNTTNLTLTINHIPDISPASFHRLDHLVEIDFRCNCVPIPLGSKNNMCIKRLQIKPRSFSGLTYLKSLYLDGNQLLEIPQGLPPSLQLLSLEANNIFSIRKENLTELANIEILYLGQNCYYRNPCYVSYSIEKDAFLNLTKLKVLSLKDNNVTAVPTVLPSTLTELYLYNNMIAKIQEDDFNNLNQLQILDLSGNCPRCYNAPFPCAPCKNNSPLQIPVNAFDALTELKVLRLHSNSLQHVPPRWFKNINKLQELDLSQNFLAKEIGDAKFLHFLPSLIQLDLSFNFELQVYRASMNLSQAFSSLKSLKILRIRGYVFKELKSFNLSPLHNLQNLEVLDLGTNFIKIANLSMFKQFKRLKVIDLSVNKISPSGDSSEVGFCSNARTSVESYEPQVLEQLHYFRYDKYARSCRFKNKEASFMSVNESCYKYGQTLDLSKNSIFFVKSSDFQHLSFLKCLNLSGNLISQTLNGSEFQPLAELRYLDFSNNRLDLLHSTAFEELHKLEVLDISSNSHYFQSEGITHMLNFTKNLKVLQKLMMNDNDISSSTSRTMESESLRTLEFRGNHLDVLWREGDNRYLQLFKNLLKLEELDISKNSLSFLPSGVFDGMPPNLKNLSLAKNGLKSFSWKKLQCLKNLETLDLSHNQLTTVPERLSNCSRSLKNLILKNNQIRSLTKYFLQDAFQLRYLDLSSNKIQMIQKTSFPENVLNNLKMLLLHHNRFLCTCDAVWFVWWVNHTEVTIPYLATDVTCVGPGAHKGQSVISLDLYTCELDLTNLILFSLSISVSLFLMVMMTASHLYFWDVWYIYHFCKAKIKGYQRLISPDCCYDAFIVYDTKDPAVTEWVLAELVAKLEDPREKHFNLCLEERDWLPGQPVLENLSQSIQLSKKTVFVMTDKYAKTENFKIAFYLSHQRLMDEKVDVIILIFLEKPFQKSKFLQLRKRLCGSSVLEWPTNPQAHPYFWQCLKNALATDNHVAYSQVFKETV

Take `Cc1cc(-c2[nH]c3ccc(C4CCC(NCC(=O)N(C)C)CC4)nc3c2C(C)C)cn2ncnc12` (stereo not drawn) [Example 280]: the IC50 worked out at 1.1 nM in experiment [1], 7.2 nM in experiment [2] and 1270 nM in experiment [3].

For `Cc1cc(-c2[nH]c3ccc(C4CCC(N5CC6(COC6)C5)CC4)nc3c2C(C)C)cn2ncnc12` (stereo not drawn) [Example 281], the IC50 in experiment [1] worked out at 0.48 nM; in experiment [2], 1.7 nM; in experiment [3] it was 880 nM.

In the case of `Cc1cc(-c2[nH]c3ccc(C4CCC(NC5COC5)CC4)nc3c2C(C)C)cc(C)n1` (stereo not drawn) [Example 282], the figures for the IC50 in experiment [1], in experiment [2] and in experiment [3] were 0.32 nM, 0.91 nM and 661 nM, respectively.

With `Cc1cc(-c2[nH]c3ccc(C4CCC(N5CC6(COC6)C5)CC4)nc3c2C(C)C)cc(C)n1` (stereo not drawn) [Example 283], the results for the IC50 in experiment [1], in experiment [2] and in experiment [3] were 0.92 nM, 1.4 nM and 298 nM, respectively.

In the case of `Cc1cc(-c2[nH]c3ccc(C4CCC(NC5COC5)CC4)nc3c2C(C)C)cn2ncnc12` (stereo not drawn) [Example 284], the IC50 was determined as 3 nM in experiment [1], 15 nM in experiment [2] and 4040 nM in experiment [3].

On to `CC(C)c1c(-c2cn(C)c3ncccc23)[nH]c2ccc(C3CCC(NCC(C)(C)S(C)(=O)=O)CC3)nc12` (stereo not drawn) [Example 285], for which the half-inhibitory concentration (IC50) in experiment [1] is 3.6 nM; in experiment [2], 5.5 nM; in experiment [3], 2310 nM.

In the case of `Cc1cc(-c2[nH]c3ccc(C4CCC(N5CC6(COC6)C5)CC4)nc3c2C(C)C)cc(C)n1` (stereo not drawn) [Example 286], the results for the IC50 in experiment [1], in experiment [2] and in experiment [3] were 5.2 nM, 9.2 nM and 1570 nM, respectively.

Regarding `Cc1cc(-c2[nH]c3ccc(C4CCC(NC5COC5)CC4)nc3c2C(C)C)cc(C)n1` (stereo not drawn) [Example 287], the IC50 was 25 nM in experiment [1], 33 nM in experiment [2] and 2360 nM in experiment [3].

As for `Cc1cc(-c2[nH]c3ccc(C4CCC(N5CC6(COC6)C5)CC4)nc3c2C(C)C)cn2ncnc12` (stereo not drawn) [Example 288], the 50% inhibitory concentration (IC50) is 28 nM in experiment [1], 114 nM in experiment [2] and 6450 nM in experiment [3].

Consider `CCn1cc(-c2[nH]c3ccc(C4CCC(NC5CCOCC5)CC4)nc3c2C(C)C)c2cccnc21` (stereo not drawn) [Example 289], for which the IC50 in experiment [1] is 3.5 nM; in experiment [2] it was 11 nM; in experiment [3], 967 nM.

In the case of `CCn1cc(-c2[nH]c3ccc(C4CCC(N5CC6(COC6)C5)CC4)nc3c2C(C)C)c2cccnc21` (stereo not drawn) [Example 290], the IC50 in experiment [1] was 2.1 nM; in experiment [2], 6.3 nM; in experiment [3], 425 nM.

In the case of `CCn1cc(-c2[nH]c3ccc(C4CCC(NCC(=O)N(C)C)CC4)nc3c2C(C)C)c2cccnc21` (stereo not drawn) [Example 291], the IC50 in experiment [1] was 2.6 nM; in experiment [2], 11 nM; in experiment [3], 735 nM.

For `CCn1cc(-c2[nH]c3ccc(C4CCC(NC5CCOCC5)CC4)nc3c2C(C)C)c2cccnc21` (stereo not drawn) [Example 292], the IC50 in experiment [1] was found to be 99 nM; in experiment [2], 127 nM; in experiment [3], 1620 nM.

On to `CCn1cc(-c2[nH]c3ccc(C4CCC(O)CC4)nc3c2C(C)C)c2cccnc21` (stereo not drawn) [Example 293], for which the figures for the IC50 in experiment [1], in experiment [2] and in experiment [3] were 75 nM, 208 nM and 5640 nM, respectively.

For `CCn1cc(-c2[nH]c3ccc(C4CCC(N5CC6(COC6)C5)CC4)nc3c2C(C)C)c2cccnc21` (stereo not drawn) [Example 294], the IC50 came out at 85 nM in experiment [1], 174 nM in experiment [2] and 2270 nM in experiment [3].

As to `CNC1CCC(c2ccc3[nH]c(-c4cn(CCO)c5ncccc45)c(C(C)C)c3n2)CC1` (stereo not drawn) [Example 295], the IC50 in experiment [1] amounted to 11 nM; in experiment [2], 11 nM; in experiment [3], 883 nM.

In the case of `CNC1CCC(c2ccc3[nH]c(-c4cn(C)c5ncncc45)c(C(C)C)c3n2)CC1` (stereo not drawn) [Example 296], the IC50 was found to be 0.59 nM in experiment [1], 6.8 nM in experiment [2] and 600 nM in experiment [3].

Consider `CNC1CCC(c2ccc3[nH]c(-c4cn(C)c5nccnc45)c(C(C)C)c3n2)CC1` (stereo not drawn) [Example 297], for which the IC50 is 8.4 nM in experiment [1], 15 nM in experiment [2] and 885 nM in experiment [3].

On to `CNC1CCC(c2ccc3[nH]c(-c4cn(CCO)c5ncccc45)c(C(C)C)c3n2)CC1` (stereo not drawn) [Example 299], for which the IC50 worked out at 10 nM in experiment [1], 6 nM in experiment [2] and 680 nM in experiment [3].

Consider `CNC1CCC(c2ccc3[nH]c(-c4cn(C)c5nccnc45)c(C(C)C)c3n2)CC1` (stereo not drawn) [Example 300], for which the IC50 came out at 48 nM in experiment [1], 286 nM in experiment [2] and 9050 nM in experiment [3].

As to `CNC1CCC(c2ccc3[nH]c(-c4cn(C)c5ncncc45)c(C(C)C)c3n2)CC1` (stereo not drawn) [Example 301], the IC50 was determined as 2 nM in experiment [1], 42 nM in experiment [2] and 4090 nM in experiment [3].

Regarding `CNC1CCC(c2ccc3[nH]c(-c4cn(C)c5ncccc45)c(C(C)C)c3n2)CC1` (stereo not drawn) [Example 302], the IC50 in experiment [1] was 0.74 nM; in experiment [2], 4.9 nM; in experiment [3], 739 nM.

In the case of `CC(C)c1c(-c2cn(C)c3ncncc23)[nH]c2ccc(C3CCC(NCC(=O)N(C)C)CC3)nc12` (stereo not drawn) [Example 303], the IC50 in experiment [1] is 0.55 nM; in experiment [2], 6.9 nM; in experiment [3], 1230 nM.

For the compound `CC(C)c1c(-c2cn(C)c3ncncc23)[nH]c2ccc(C3CCC(NCCS(C)(=O)=O)CC3)nc12` (stereo not drawn) [Example 304], the IC50 in experiment [1] was found to be 0.53 nM; in experiment [2], 1.8 nM; in experiment [3], 1070 nM.

`CC(C)c1c(-c2cn(C)c3ncncc23)[nH]c2ccc(C3CCC(NC4CCOCC4)CC3)nc12` (stereo not drawn) [Example 305]: the figures for the IC50 in experiment [1], in experiment [2] and in experiment [3] were 4 nM, 16 nM and 8240 nM, respectively.

Consider `CC(C)c1c(-c2cc(CO)c3ncnn3c2)[nH]c2ccc(C3CCC(N(C)Cc4ccc(F)cc4)CC3)nc12` (stereo not drawn) [Example 306], for which the results for the IC50 in experiment [1], in experiment [2] and in experiment [3] were 13 nM, 61 nM and 10100 nM, respectively.

Consider `CC(C)c1c(-c2cc(CO)c3ncnn3c2)[nH]c2ccc(C3CCC(NCCC(F)(F)F)CC3)nc12` (stereo not drawn) [Example 307], for which the IC50 is 0.86 nM in experiment [1], 2.7 nM in experiment [2] and 2980 nM in experiment [3].

Turning to `CC(C)c1c(-c2cc(CO)c3ncnn3c2)[nH]c2ccc(C3CCC(NCCC(F)(F)F)CC3)nc12` (stereo not drawn) [Example 308], the IC50 stood at 11 nM in experiment [1], 11 nM in experiment [2] and 3960 nM in experiment [3].

Regarding `COc1cc(-c2[nH]c3cc(C)c(C4CCC(NC5COC5)CC4)nc3c2C(C)C)cn2ncnc12` (stereo not drawn) [Example 309], the figures for the IC50 in experiment [1], in experiment [2] and in experiment [3] were 0.31 nM, 4.6 nM and 268 nM, respectively.

Regarding `COc1cc(-c2[nH]c3cc(C)c(C4CCC(NC5(C)COC5)CC4)nc3c2C(C)C)cn2ncnc12` (stereo not drawn) [Example 310], the IC50 is 0.39 nM in experiment [1], 4.1 nM in experiment [2] and 1780 nM in experiment [3].

For `COc1cc(-c2[nH]c3cc(C)c(C4CCC(NC5(C)COC5)CC4)nc3c2C(C)C)cn2ncnc12` (stereo not drawn) [Example 311], the IC50 in experiment [1] worked out at 2.8 nM; in experiment [2], 44 nM; in experiment [3], 2020 nM.

On to `COc1cc(-c2[nH]c3cc(C)c(C4CCC(NCC5(C)COC5)CC4)nc3c2C(C)C)cn2ncnc12` (stereo not drawn) [Example 312], for which the IC50 in experiment [1] came to 0.26 nM; in experiment [2], 1.6 nM; in experiment [3], 577 nM.

For `CCN(C)C1CCC(c2nc3c(C(C)C)c(-c4cc(OC)c5ncnn5c4)[nH]c3cc2C)CC1` (stereo not drawn) [Example 313], the IC50 in experiment [1] turned out to be 0.21 nM; in experiment [2] it was 7 nM; in experiment [3], 1200 nM.

Regarding `COc1cc(-c2[nH]c3cc(C)c(C4CCC(NCC(C)(C)O)CC4)nc3c2C(C)C)cn2ncnc12` (stereo not drawn) [Example 314], the IC50 in experiment [1] turned out to be 2.4 nM; in experiment [2], 47 nM; in experiment [3] it was 5510 nM.

For `COc1cc(-c2[nH]c3cc(C)c(C4CCC(NCC5(C)COC5)CC4)nc3c2C(C)C)cn2ncnc12` (stereo not drawn) [Example 315], the IC50 in experiment [1] is 1.8 nM; in experiment [2], 29 nM; in experiment [3], 5220 nM.

Turning to `COc1cc(-c2[nH]c3cc(C)c(C4CCC(NC5COC5)CC4)nc3c2C(C)C)cn2ncnc12` (stereo not drawn) [Example 316], the IC50 in experiment [1] is 1.4 nM; in experiment [2], 41 nM; in experiment [3], 3020 nM.

`COc1cc(-c2[nH]c3cc(C)c(C4CCC(N5CC6(COC6)C5)CC4)nc3c2C(C)C)cn2ncnc12` (stereo not drawn) [Example 317]: the results for the IC50 in experiment [1], in experiment [2] and in experiment [3] were 4.8 nM, 94 nM and 3610 nM, respectively.

As to `COc1cc(-c2[nH]c3cc(C)c(C4CCC(N)CC4)nc3c2C(C)C)cn2ncnc12` (stereo not drawn) [Example 318], the IC50 in experiment [1] came out at 0.17 nM; in experiment [2], 2.1 nM; in experiment [3], 1060 nM.

Take `COc1cc(-c2[nH]c3cc(C)c(C4CCC(N5CC6(COC6)C5)CC4)nc3c2C(C)C)cn2ncnc12` (stereo not drawn) [Example 319]: the IC50 in experiment [1] was 0.44 nM; in experiment [2], 4.1 nM; in experiment [3], 1690 nM.

Take `CCN(C)C1CCC(c2nc3c(C(C)C)c(-c4cc(OC)c5ncnn5c4)[nH]c3cc2C)CC1` (stereo not drawn) [Example 320]: the IC50 in experiment [1] turned out to be 1 nM; in experiment [2], 22 nM; in experiment [3], 1480 nM.

Regarding `COc1cc(-c2[nH]c3cc(C)c(C4CCC(NCC(F)F)CC4)nc3c2C(C)C)cn2ncnc12` (stereo not drawn) [Example 322], the IC50 in experiment [1] is 1.7 nM; in experiment [2] it was 19 nM; in experiment [3], 7410 nM.

For the compound `COc1cc(-c2[nH]c3cc(C)c(C4CCC(N)CC4)nc3c2C(C)C)cn2ncnc12` (stereo not drawn) [Example 323], the IC50 in experiment [1] came to 1.1 nM; in experiment [2], 31 nM; in experiment [3] it was 1360 nM.

Consider `COc1cc(-c2[nH]c3cc(C)c(C4CCC(NCC(F)F)CC4)nc3c2C(C)C)cn2ncnc12` (stereo not drawn) [Example 324], for which the IC50 in experiment [1] worked out at 6.6 nM; in experiment [2] it was 240 nM; in experiment [3], 20500 nM.
